Assays:
Experiment in all cases: relative viability (nuclei count vs DMSO), 5 days (fraction); higher = more cells survive
[1] = test system: HOP-62
Method in brief: (§1)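 Relative viability is defined as nuclei in treated wells over nuclei in vehicle wells. Duplicate plates were run and medians reported. Lung cancer cell lines in 1536-well plates were dosed by pin tool one day after seeding, with one drug or with a fixed anchor-drug dose plus five library-drug doses (not always all listed) in √10 steps, and nuclei were counted after 5 days.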

[2] = test system: SW 1573
Method in brief: as §1

[3] = test system: PC-3 [JPC-3]
Method in brief: as §1

[4] = test system: NCI-H1355
Method in brief: as §1

[5] = test system: LU99A
Method in brief: as §1

[6] = test system: NCI-H2405
Method in brief: as §1

[7] = test system: NCI-H441
Method in brief: as §1

[8] = test system: NCI-H3122
Method in brief: as §1

[9] = test system: EPLC-272H
Method in brief: as §1

[10] = test system: EKVX
Method in brief: as §1

[11] = test system: H3255
Method in brief: as §1

[12] = test system: LXF-289
Method in brief: as §1

[13] = test system: NCI-H2228
Method in brief: as §1

[14] = test system: LCLC-97TM1
Method in brief: as §1

[15] = test system: NCI-H1650
Method in brief: as §1

[16] = test system: NCI-H1993
Method in brief: as §1

[17] = test system: LK-2
Method in brief: as §1

[18] = test system: SK-LU-1
Method in brief: as §1

[19] = test system: HCC-827
Method in brief: as §1

[20] = test system: ChaGo-K-1
Method in brief: as §1

[21] = test system: NCI-H2170
Method in brief: as §1

[22] = test system: UMC-11
Method in brief: as §1

## CN1CCN(CCOc2cc(OC3CCOCC3)c3c(Nc4c(Cl)ccc5c4OCO5)ncnc3c2)CC1 [Saracatinib] + CC1(C)CCC(c2ccc(Cl)cc2)=C(CN2CCN(c3ccc(C(=O)NS(=O)(=O)c4ccc(N[C@H](CCN5CCOCC5)CSc5ccccc5)c(S(=O)(=O)C(F)(F)F)c4)cc3)CC2)C1 [Navitoclax] (partner 0.5 µM)
[1]; first compound 0.02 µM
  relative viability: 1.01
[1]; first compound 0.2 µM
  relative viability: 0.804
[1]; first compound 0.6325 µM
  relative viability: 1.25
[1]; first compound 2 µM
  relative viability: 1.1
[2]; first compound 0.02 µM
  relative viability: 0.958
[2]; first compound 0.2 µM
  relative viability: 0.969
[2]; first compound 0.6325 µM
  relative viability: 0.919
[2]; first compound 2 µM
  relative viability: 0.838
[3]; first compound 0.02 µM
  relative viability: 0.806
[3]; first compound 0.2 µM
  relative viability: 0.754
[3]; first compound 0.6325 µM
  relative viability: 0.726
[3]; first compound 2 µM
  relative viability: 0.508
[4]; first compound 0.02 µM
  relative viability: 0.988
[4]; first compound 0.2 µM
  relative viability: 0.895
[4]; first compound 0.6325 µM
  relative viability: 0.928
[4]; first compound 2 µM
  relative viability: 0.901
[5]; first compound 0.02 µM
  relative viability: 0.818
[5]; first compound 0.2 µM
  relative viability: 0.629
[5]; first compound 0.6325 µM
  relative viability: 0.847
[5]; first compound 2 µM
  relative viability: 0.865
[6]; first compound 0.02 µM
  relative viability: 0.816
[6]; first compound 0.2 µM
  relative viability: 0.874
[6]; first compound 0.6325 µM
  relative viability: 0.401
[6]; first compound 2 µM
  relative viability: 0.316
[7]; first compound 0.02 µM
  relative viability: 0.566
[7]; first compound 0.2 µM
  relative viability: 0.681
[7]; first compound 0.6325 µM
  relative viability: 0.832
[7]; first compound 2 µM
  relative viability: 0.624
[8]; first compound 0.02 µM
  relative viability: 1.02
[8]; first compound 0.6325 µM
  relative viability: 0.942
[8]; first compound 2 µM
  relative viability: 0.838
[9]; first compound 0.02 µM
  relative viability: 1.19
[9]; first compound 0.2 µM
  relative viability: 0.976
[9]; first compound 0.6325 µM
  relative viability: 1.19
[9]; first compound 2 µM
  relative viability: 0.999
[10]; first compound 0.02 µM
  relative viability: 0.902
[10]; first compound 0.2 µM
  relative viability: 0.88
[10]; first compound 0.6325 µM
  relative viability: 0.903
[10]; first compound 2 µM
  relative viability: 0.357
[11]; first compound 0.02 µM
  relative viability: 0.515
[11]; first compound 0.2 µM
  relative viability: 0.393
[11]; first compound 0.6325 µM
  relative viability: 0.302
[11]; first compound 2 µM
  relative viability: 0.0997
[12]; first compound 0.02 µM
  relative viability: 0.979
[12]; first compound 0.2 µM
  relative viability: 0.846
[12]; first compound 0.6325 µM
  relative viability: 0.993
[12]; first compound 2 µM
  relative viability: 0.964
[13]; first compound 0.02 µM
  relative viability: 1.29
[13]; first compound 0.2 µM
  relative viability: 0.831
[13]; first compound 0.6325 µM
  relative viability: 1.24
[13]; first compound 2 µM
  relative viability: 0.459
[14]; first compound 0.02 µM
  relative viability: 0.422
[14]; first compound 0.2 µM
  relative viability: 0.356
[14]; first compound 0.6325 µM
  relative viability: 0.501
[14]; first compound 2 µM
  relative viability: 0.46
[15]; first compound 0.02 µM
  relative viability: 1.17
[15]; first compound 0.2 µM
  relative viability: 1.1
[15]; first compound 0.6325 µM
  relative viability: 0.983
[15]; first compound 2 µM
  relative viability: 0.981
[16]; first compound 0.02 µM
  relative viability: 0.848
[16]; first compound 0.2 µM
  relative viability: 0.78
[16]; first compound 2 µM
  relative viability: 0.769
[17]; first compound 0.02 µM
  relative viability: 0.795
[17]; first compound 0.2 µM
  relative viability: 0.781
[17]; first compound 0.6325 µM
  relative viability: 0.71
[17]; first compound 2 µM
  relative viability: 0.489
[18]; first compound 0.02 µM
  relative viability: 0.752
[18]; first compound 0.2 µM
  relative viability: 0.535
[18]; first compound 0.6325 µM
  relative viability: 0.527
[18]; first compound 2 µM
  relative viability: 0.412
[19]; first compound 0.02 µM
  relative viability: 0.979
[19]; first compound 0.2 µM
  relative viability: 0.808
[19]; first compound 0.6325 µM
  relative viability: 0.368
[19]; first compound 2 µM
  relative viability: 0.137
[20]; first compound 0.02 µM
  relative viability: 1.15
[20]; first compound 0.2 µM
  relative viability: 0.68
[20]; first compound 0.6325 µM
  relative viability: 1.21
[20]; first compound 2 µM
  relative viability: 0.542
[21]; first compound 0.02 µM
  relative viability: 0.57
[21]; first compound 0.2 µM
  relative viability: 0.564
[21]; first compound 0.6325 µM
  relative viability: 0.609
[21]; first compound 2 µM
  relative viability: 0.39
[22]; first compound 0.02 µM
  relative viability: 0.318
[22]; first compound 0.6325 µM
  relative viability: 0.295
[22]; first compound 2 µM
  relative viability: 0.267

— the supplement of paper PMC10307832
